Experimental data published in PubChem BioAssay AID1963871 (Molecular Pharmacology Branch, DTP, NCI, 2024).

System: KRAS-mutant PDC multicell tumor spheroid viability
Assay: Anticancer human tumor 521955-158-R2-J5-PDC patient-derived pancreatic carcinoma cell line growth inhibition [KRAS2]
Settings: for IC50: curve of first compound; for viability, T/C: stronger effect = lower value
Method in brief: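 KRAS-mutant tumor cells were grown as spheroids with HUVEC endothelial cells and human MSCs as stroma. Targeted agents were tested alone and with KRAS pathway inhibitors. Doses started at or near clinical Cmax, or 10 microM, descending half-log.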

[1] = second compound 0.1 µM, first compound 0.0316 µM
[2] = second compound 0.1 µM, first compound 0.1 µM
[3] = second compound 0.316 µM, first compound 0.0316 µM
[4] = second compound 0.316 µM, first compound 0.1 µM
[5] = second compound 1 µM, first compound 0.0316 µM
[6] = second compound 1 µM, first compound 0.1 µM
[7] = second compound 3.16 µM, first compound 0.0316 µM
[8] = second compound 3.16 µM, first compound 0.1 µM
[9] = second compound 10 µM, first compound 0.0316 µM
[10] = second compound 10 µM, first compound 0.1 µM
[11] = second compound 0.1 µM, first compound 0.316 µM
[12] = second compound 0.1 µM, first compound 1 µM
[13] = second compound 0.1 µM, first compound 3.16 µM
[14] = second compound 0.1 µM, first compound 10 µM
[15] = second compound 0.316 µM, first compound 0.316 µM
[16] = second compound 0.316 µM, first compound 1 µM
[17] = second compound 0.316 µM, first compound 3.16 µM
[18] = second compound 0.316 µM, first compound 10 µM
[19] = second compound 1 µM, first compound 0.316 µM
[20] = second compound 1 µM, first compound 1 µM
[21] = second compound 1 µM, first compound 3.16 µM
[22] = second compound 1 µM, first compound 10 µM
[23] = second compound 3.16 µM, first compound 0.316 µM
[24] = second compound 3.16 µM, first compound 1 µM
[25] = second compound 3.16 µM, first compound 3.16 µM
[26] = second compound 3.16 µM, first compound 10 µM
[27] = second compound 10 µM, first compound 0.316 µM
[28] = second compound 10 µM, first compound 1 µM
[29] = second compound 10 µM, first compound 3.16 µM
[30] = second compound 10 µM, first compound 10 µM
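Also: viability read after seven days of drug exposure.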

SMILES | IC50 (second compound 0.1 µM) [µM] | IC50 (second compound 0.316 µM) [µM] | IC50 (second compound 1 µM) [µM] | IC50 (second compound 3.16 µM) [µM] | IC50 (second compound 10 µM) [µM] | viability, T/C [1] [%] | viability, T/C [2] [%] | viability, T/C [3] [%] | viability, T/C [4] [%] | viability, T/C [5] [%] | viability, T/C [6] [%] | viability, T/C [7] [%] | viability, T/C [8] [%] | viability, T/C [9] [%] | viability, T/C [10] [%] | viability, T/C [11] [%] | viability, T/C [12] [%] | viability, T/C [13] [%] | viability, T/C [14] [%] | viability, T/C [15] [%] | further results
CN(C)C/C=C/C(=O)Nc1cc2c(Nc3ccc(F)c(Cl)c3)ncnc2cc1O[C@H]1CCOC1 + CC1OCC2(CCN(c3cnc(Sc4ccnc(N)c4Cl)c(N)n3)CC2)C1N | > 0.1 | > 0.1 | > 0.1 | < 0.000316 | > 0.1 | 81.9 | 59.3 | 63.5 | 58.2 | 78.6 | 73.1 | 65.2 | 64.5 | 80.8 | 80.3 | – | – | – | – | – | viability, T/C (second compound 0.1 µM, first compound 0.000316 µM): 71.7%; viability, T/C (second compound 0.1 µM, first compound 0.001 µM): 66.5%; viability, T/C (second compound 0.1 µM, first compound 0.00316 µM): 56.3%; viability, T/C (second compound 0.1 µM, first compound 0.01 µM): 73.4%; viability, T/C (second compound 0.316 µM, first compound 0.000316 µM): 60.5%; viability, T/C (second compound 0.316 µM, first compound 0.001 µM): 70.3%; viability, T/C (second compound 0.316 µM, first compound 0.00316 µM): 57.3%; viability, T/C (second compound 0.316 µM, first compound 0.01 µM): 57.6%; viability, T/C (second compound 1 µM, first compound 0.000316 µM): 112%; viability, T/C (second compound 1 µM, first compound 0.001 µM): 107%; viability, T/C (second compound 1 µM, first compound 0.00316 µM): 85.3%; viability, T/C (second compound 1 µM, first compound 0.01 µM): 75.5%; viability, T/C (second compound 3.16 µM, first compound 0.000316 µM): 28%; viability, T/C (second compound 3.16 µM, first compound 0.001 µM): 37%; viability, T/C (second compound 3.16 µM, first compound 0.00316 µM): 37.2%; viability, T/C (second compound 3.16 µM, first compound 0.01 µM): 49%; viability, T/C (second compound 10 µM, first compound 0.000316 µM): 105%; viability, T/C (second compound 10 µM, first compound 0.001 µM): 90%; viability, T/C (second compound 10 µM, first compound 0.00316 µM): 85.8%; viability, T/C (second compound 10 µM, first compound 0.01 µM): 79.9%
COC(=O)c1ccc2c(C(=Nc3ccc(N(C)C(=O)CN4CCN(C)CC4)cc3)c3ccccc3)c(O)[nH]c2c1 + CC1OCC2(CCN(c3cnc(Sc4ccnc(N)c4Cl)c(N)n3)CC2)C1N | 2.49 | 1.8 | 1.07 | 1.08 | 1.12 | 79.4 | 80.7 | 66.3 | 70.5 | 46.8 | 46.7 | 56 | 58.6 | 61.1 | 58.3 | 72.9 | 80.8 | 42.5 | 0.38 | 60 | viability, T/C [16]: 85.4%; viability, T/C [17]: 30.1%; viability, T/C [18]: 0.37%; viability, T/C [19]: 55.9%; viability, T/C [20]: 57%; viability, T/C [21]: 26.6%; viability, T/C [22]: 0.4%; viability, T/C [23]: 58%; viability, T/C [24]: 51.7%; viability, T/C [25]: 23.2%; viability, T/C [26]: 0.51%; viability, T/C [27]: 64.3%; viability, T/C [28]: 55.4%; viability, T/C [29]: 0.64%; viability, T/C [30]: 0.38%
O=C(c1cc(Cc2n[nH]c(=O)c3ccccc23)ccc1F)N1CCN(C(=O)C2CC2)CC1 + CC1OCC2(CCN(c3cnc(Sc4ccnc(N)c4Cl)c(N)n3)CC2)C1N | > 10 | < 0.0316 | > 10 | < 0.0316 | 0.725 | 67.2 | 71.2 | 48.7 | 48.6 | 106 | 118 | 30.4 | 35.5 | 43.2 | 44.3 | 57.2 | 55 | 53.3 | 58 | 46.8 | viability, T/C [16]: 49.1%; viability, T/C [17]: 49.8%; viability, T/C [18]: 40.2%; viability, T/C [19]: 92.3%; viability, T/C [20]: 83.9%; viability, T/C [21]: 74.1%; viability, T/C [22]: 56.8%; viability, T/C [23]: 37.9%; viability, T/C [24]: 35.9%; viability, T/C [25]: 38.6%; viability, T/C [26]: 33.6%; viability, T/C [27]: 86.8%; viability, T/C [28]: 46.9%; viability, T/C [29]: 44%; viability, T/C [30]: 39.3%
